Earlier results in patent US6238865A, “Simple and efficient method to label and modify 3'-termini of RNA using DNA polymerase and a synthetic template with defined overhang nucleotides” (Chen; Guangtian, priority 1998, dated 2001).

Biological target: poly(A) polymerase (Saccharomyces cerevisiae, UniProt P29468)
Conditions: cited from Lingner et al., J. Biol. Chem. 266:8741-8746, 1991, read-out: Km for ATP

Sequence of poly(A) polymerase (P29468 whole entry): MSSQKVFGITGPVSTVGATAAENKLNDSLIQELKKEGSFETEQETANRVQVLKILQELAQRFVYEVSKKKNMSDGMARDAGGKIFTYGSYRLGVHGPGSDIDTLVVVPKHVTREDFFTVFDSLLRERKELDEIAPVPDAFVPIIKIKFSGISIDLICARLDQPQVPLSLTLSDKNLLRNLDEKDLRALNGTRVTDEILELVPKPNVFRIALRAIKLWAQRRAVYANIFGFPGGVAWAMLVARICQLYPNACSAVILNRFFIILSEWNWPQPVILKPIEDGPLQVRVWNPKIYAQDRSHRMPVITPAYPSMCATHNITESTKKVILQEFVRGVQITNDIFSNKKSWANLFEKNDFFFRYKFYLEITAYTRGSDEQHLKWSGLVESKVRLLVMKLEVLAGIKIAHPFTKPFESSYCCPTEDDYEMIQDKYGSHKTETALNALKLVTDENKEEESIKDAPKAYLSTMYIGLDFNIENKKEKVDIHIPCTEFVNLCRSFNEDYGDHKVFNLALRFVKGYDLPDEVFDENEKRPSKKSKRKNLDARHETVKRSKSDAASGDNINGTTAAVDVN

In the case of Nc1ncnc2c1ncn2[C@@H]1O[C@H](COP(=O)(O)OP(=O)(O)OP(=O)(O)O)[C@@H](O)[C@H]1O [ATP], the Km is given as 50 µM.
